In patent publication US10092570B2 (Incyte Corporation, priority 2011, dated 2018):

Target: PI3K isoform δ (Homo sapiens (Human), UniProt O00329)
Assay: Example A2: PI3K enzyme assay ([γ-33P]ATP filter plate), PI3Kδ
Assay type: biochemical
Conditions: as determined by Assay A2
Method: PI3K isoforms α, β, δ and γ are purchased from Millipore (Bedford, Mass.).
Inhibitors are first diluted serially in DMSO and added to the plate wells before the addition of other reaction components. The final concentration of DMSO in the assay is 0.5%. The PI3K assays are carried out at room temperature in 20 mM MOPS, pH 6.7, 10 mM MgCl2, 5 mM DTT and CHAPS 0.03%. The reaction mixture is prepared containing 50 μM PIP2, kinase and varying concentration of inhibitors. Reactions are initiated by the addition of ATP containing 2.2 μCi [γ-^33P]ATP to a final concentration of 1000 μM. […] Reactions are incubated for 180 minutes and terminated by the addition of 100 μL of 1 M potassium phosphate pH 8.0, 30 mM EDTA quench buffer. A 100 μL aliquot of the reaction solution are then transferred to 96-well Millipore MultiScreen IP 0.45 μm PVDF filter plate (The filter plate is prewetted with 200 μL 100% ethanol, distilled water, and 1 M potassium phosphate pH 8.0, respectively). […] After drying by aspiration and blotting, the plate is air dried in an incubator at 37° C. overnight. Packard TopCount adapter (Millipore) is then attached to the plate followed with addition of 120 μL Microscint 20 scintillation cocktail (Perkin Elmer) in each well. After the plate sealing, the radioactivity of the product is determined by scintillation counting on Topcount (Perkin-Elmer). […]

Sequence of PI3K isoform δ (O00329 whole entry, canonical isoform): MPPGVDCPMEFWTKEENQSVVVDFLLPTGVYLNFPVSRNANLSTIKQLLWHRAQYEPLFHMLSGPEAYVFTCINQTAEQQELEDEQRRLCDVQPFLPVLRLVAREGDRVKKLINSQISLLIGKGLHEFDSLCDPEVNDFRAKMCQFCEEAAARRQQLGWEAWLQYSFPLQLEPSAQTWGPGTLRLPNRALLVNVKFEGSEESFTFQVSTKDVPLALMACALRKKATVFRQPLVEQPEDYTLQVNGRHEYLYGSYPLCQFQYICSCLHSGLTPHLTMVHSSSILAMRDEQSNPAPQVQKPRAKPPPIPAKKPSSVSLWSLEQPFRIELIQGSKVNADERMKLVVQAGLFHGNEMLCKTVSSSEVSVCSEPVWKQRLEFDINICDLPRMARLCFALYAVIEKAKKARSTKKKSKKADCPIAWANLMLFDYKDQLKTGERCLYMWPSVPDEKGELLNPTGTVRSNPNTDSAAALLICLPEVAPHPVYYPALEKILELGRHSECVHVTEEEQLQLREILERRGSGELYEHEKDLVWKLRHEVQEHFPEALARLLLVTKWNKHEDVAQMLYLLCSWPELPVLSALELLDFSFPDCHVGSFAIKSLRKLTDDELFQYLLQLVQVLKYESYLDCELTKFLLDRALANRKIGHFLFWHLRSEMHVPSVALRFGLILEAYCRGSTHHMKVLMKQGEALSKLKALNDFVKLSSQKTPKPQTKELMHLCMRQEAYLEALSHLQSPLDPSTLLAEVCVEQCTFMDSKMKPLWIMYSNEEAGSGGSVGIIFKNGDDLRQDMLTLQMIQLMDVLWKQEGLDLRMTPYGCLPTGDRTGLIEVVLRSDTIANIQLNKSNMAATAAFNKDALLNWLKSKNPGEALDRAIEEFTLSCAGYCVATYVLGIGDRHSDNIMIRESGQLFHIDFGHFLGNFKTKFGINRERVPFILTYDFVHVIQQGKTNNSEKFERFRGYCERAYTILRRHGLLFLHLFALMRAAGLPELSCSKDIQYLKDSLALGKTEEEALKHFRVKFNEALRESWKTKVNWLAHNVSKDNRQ
Sequence of PI3K isoform δ (P27986 whole entry partner, canonical isoform): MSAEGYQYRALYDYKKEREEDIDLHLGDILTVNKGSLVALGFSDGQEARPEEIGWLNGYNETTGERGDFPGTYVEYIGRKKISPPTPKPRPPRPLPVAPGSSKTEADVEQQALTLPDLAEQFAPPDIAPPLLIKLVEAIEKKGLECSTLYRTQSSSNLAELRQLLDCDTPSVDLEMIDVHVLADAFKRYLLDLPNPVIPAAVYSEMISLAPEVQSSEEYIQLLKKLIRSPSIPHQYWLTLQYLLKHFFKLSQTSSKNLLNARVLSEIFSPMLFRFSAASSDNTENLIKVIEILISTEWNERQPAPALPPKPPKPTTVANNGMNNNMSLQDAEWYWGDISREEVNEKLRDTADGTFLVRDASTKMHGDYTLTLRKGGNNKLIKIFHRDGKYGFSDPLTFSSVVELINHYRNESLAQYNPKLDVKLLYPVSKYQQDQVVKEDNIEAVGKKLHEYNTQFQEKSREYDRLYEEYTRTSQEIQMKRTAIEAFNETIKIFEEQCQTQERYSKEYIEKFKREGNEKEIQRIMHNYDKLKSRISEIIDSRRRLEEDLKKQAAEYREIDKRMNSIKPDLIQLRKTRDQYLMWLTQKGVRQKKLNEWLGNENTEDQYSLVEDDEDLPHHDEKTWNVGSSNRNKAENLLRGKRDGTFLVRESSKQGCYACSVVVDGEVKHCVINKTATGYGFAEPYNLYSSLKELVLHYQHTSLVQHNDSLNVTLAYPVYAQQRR

IC50: > 500 nM
SMILES: COc1c([C@@H](C)n2nc(C)c3c(N)ncnc32)cc(Cl)c(C#N)c1C1CN(C[C@H](C)O)C1 [Example 361, 4-((R)-1-(4-amino-3-methyl-1H-pyrazolo[3,4-d]pyrimidin-1-yl)ethyl)-6-chloro-2-(1-((S)-2-hydroxypropyl)azetidin-3-yl)-3-methoxybenzonitrile]
